Values quoted from earlier work, collected in patent US10369185B2, “Methods and compositions for enhancement of ability to concentrate” (KYOWA HAKKO BIO CO., LTD., priority 2014, dated 2019).

Conditions: alanylglutamine compared to glutamine; cited from earlier work

## NC(=O)CC[C@H](N)C(=O)O [glutamine, reference compound]
  solubility in aqueous solutions: low-solubility
